Experimental data published in patent US20100105666A1, “TRIAZABENZO (A)NAPHTHO(2,1,8-CDE) AZULENE COMPOUNDS” (priority 2007, published 2010).

Columns and labels:
[1] = compound 10^−7M, NADPH, 0-60 minutes; for % metabolic stability predicted using hepatic microsomes, Human: human hepatic microsomes 0.33 mg of prot/ml; for % metabolic stability predicted using hepatic microsomes, Mouse: mouse hepatic microsomes 0.33 mg of prot/ml; for % metabolic stability predicted using hepatic microsomes, Rat: rat hepatic microsomes 0.33 mg of prot/ml
Protocol: The predicted metabolic stability is tested by incubation of the compounds at a concentration of 10^−7M in the presence of mouse, rat or human hepatic microsomes (0.33 mg of prot/ml). After addition of NADPH (nicotinamide adenine dinucleotide phosphate, reduced form), samples are taken at 0, 5, 15, 30 and 60 minutes. The enzymatic reaction is stopped using methanol (V/V). The protein is precipitated by centrifugation and the supernatant is analysed by LC-MS-MS.

[2] = test system: tyrosine hydroxylase (TH) protein in the locus coeruleus (LC); test: Induction of tyrosine hydroxylase in the locus coeruleus after a single i.p. injection; assay type: in vivo; conditions: three days after injection, Balb/C mouse; for amount of TH in LC section 1, % relative to the mean value of the control group: LC section 1 (anterior-to-posterior), i.p. 20 mg/kg; for amount of TH in LC section 2, % relative to the mean value of the control group: LC section 2, i.p. 20 mg/kg; for amount of TH in LC section 3, % relative to the mean value of the control group: LC section 3, i.p. 20 mg/kg; for amount of TH in LC section 4, % relative to the mean value of the control group: LC section 4, i.p. 20 mg/kg; for amount of TH in LC section 5, % relative to the mean value of the control group: LC section 5, i.p. 20 mg/kg; for amount of TH in LC section 6, % relative to the mean value of the control group: LC section 6, i.p. 20 mg/kg; for amount of TH in LC section 7, % relative to the mean value of the control group: LC section 7, i.p. 20 mg/kg; for amount of TH in LC section 8, % relative to the mean value of the control group: LC section 8, i.p. 20 mg/kg
Source text: An investigation is made, among the compounds, for the capability of bringing about an increase in the tyrosine hydroxylase (TH) protein in the locus coeruleus (LC) of the brain of the Balb/C mouse.
The animals used are male mice of the pure Balb/C strain (Charles River Laboratories) aged 7 to 8 weeks at the time of treatment.
The mice are given a single injection, by the intraperitoneal route, of the compound under test, dissolved in 0.04M HCl solution (corresponding control: […]), if the compound is sufficiently soluble, or in olive oil 90%/DMSO 10% (corresponding control: olive oil 90%/DMSO 10%) for compounds that are insoluble in an aqueous medium.
Three days after the injection of each compound, all the animals are sacrificed by decapitation. The extracted brains are then frozen in liquid nitrogen and stored at −80° C.
Coronal sections 8 microns thick are then taken along the posterior-anterior axis of the LC and fixed. The sections are transferred onto Immobilon-P membranes. The TH is measured by immunodetection and image analysis.

[3] = target: 5HT receptors (type 5HT2A) (Homo sapiens, UniProt P28223); test: Affinity for receptors, displacement of labelled specific ligand: 5HT2A; assay type: binding
5HT receptors (type 5HT2A), sequence (P28223 whole entry): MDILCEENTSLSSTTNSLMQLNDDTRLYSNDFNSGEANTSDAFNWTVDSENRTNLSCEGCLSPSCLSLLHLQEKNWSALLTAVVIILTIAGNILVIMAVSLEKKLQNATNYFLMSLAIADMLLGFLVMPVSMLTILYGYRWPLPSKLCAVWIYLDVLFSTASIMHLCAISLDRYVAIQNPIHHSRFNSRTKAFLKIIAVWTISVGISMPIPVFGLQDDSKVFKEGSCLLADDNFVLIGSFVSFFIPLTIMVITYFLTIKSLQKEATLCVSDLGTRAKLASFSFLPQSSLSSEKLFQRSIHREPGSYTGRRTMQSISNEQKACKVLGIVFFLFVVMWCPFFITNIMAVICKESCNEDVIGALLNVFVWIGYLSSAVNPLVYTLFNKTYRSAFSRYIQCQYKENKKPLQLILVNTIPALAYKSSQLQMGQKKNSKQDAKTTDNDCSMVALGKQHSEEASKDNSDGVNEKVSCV
Source text: The receptor affinity was accordingly studied for 28 conventional receptors.

Compound | % metabolic stability predicted using hepatic microsomes, Human [1] | % metabolic stability predicted using hepatic microsomes, Mouse [1] | % metabolic stability predicted using hepatic microsomes, Rat [1] | amount of TH in LC section 1, % relative to the mean value of the control group [2] | amount of TH in LC section 2, % relative to the mean value of the control group [2] | amount of TH in LC section 3, % relative to the mean value of the control group [2] | amount of TH in LC section 4, % relative to the mean value of the control group [2] | amount of TH in LC section 5, % relative to the mean value of the control group [2] | amount of TH in LC section 6, % relative to the mean value of the control group [2] | amount of TH in LC section 7, % relative to the mean value of the control group [2] | amount of TH in LC section 8, % relative to the mean value of the control group [2] | % inhibition 5HT2A ([3]; concentration 10^−5 M) | % inhibition 5HT2A ([3]; concentration 10^−7 M) | melting point
O=C1NC(=O)N2c3ccccc3C3CCN4CCCC1C4C32 (single isomer, unassigned) [Example 5, (5aS,12aR,12bR,12cR)— or (5aR,12aS,12bS,12cS)-2,3,5a,12a,12b,12c-Hexahydro-1H,4H-3a,9b,11-triazabenzo[a]naphtho[2,1,8-cde]azulene-10,12(5H,11H)-dione (enantiomer α)] | 75% | 100% | 90% |  |  |  |  |  |  |  |  |  |  | 
O=C1NC(=O)N2c3ccccc3C3CCN4CCCC1C4C32 (single isomer, unassigned) [Example 6, (5aS,12aR,12bR,12cR)— or (5aR,12aS,12bS,12cS)-2,3,5a,12a,12b,12c-Hexahydro-1H,4H-3a,9b,11-triazabenzo[a]naphtho[2,1,8-cde]azulene-10,12(5H,11H)-dione (enantiomer β)] | 71% | 100% | 76% |  |  |  |  |  |  |  |  |  |  | 
O=C1NC(=O)n2c3c(c4ccccc42)CCN2CCCC1C32 (racemic) [Example 7, (12aRS,12bRS)-2,3,12a,12b-Tetrahydro-1H,4H-3a,9b,11-triazabenzo[a]naphtho[2,1,8-cde]azulene-10,12(5H,11H)-dione] |  |  |  | 63% | 67% | 48% | 47% | 43% | 23% | 7% | 6% | 96% | 34% | 
O=C1NC(=O)N2c3ccccc3[C@H]3CCN4CCC[C@H]1[C@H]4[C@H]32 (racemic) [Example 4, (5aRS,12aSR,12bSR,12cSR)-2,3,5a,12a,12b,12c-Hexahydro-1H,4H-3a,9b,11-triazabenzo[a]naphtho[2,1,8-cde]azulene-10,12(5H,11H)-dione] |  |  |  | 88% | 78% | 70% | 58% | 27% | 14% | 9% | 3% |  |  | 255 °C
(5aRS,12aSR,12bSR,12cSR)-7-Chloro-2,3,5a,12a,12b,12c-hexahydro-1H,4H-3a,9b,1′-triazabenzo[a]naphtho[2,1,8-cde]azulene-10,12(5H,11H)-dione [Example 2] |  |  |  | 53% | 54% | 46% | 35% | 25% | 14% | 5% | 3% |  |  | 
O=C1NC(=O)n2c3c(c4cc(Cl)ccc42)CCN2CCCC1C32 (racemic) [Example 3, (12aRS,12bRS)-7-Chloro-2,3,12a,12b-tetrahydro-4H,4H-3a,9b,11-triazabenzo[a]naphtho[2,1,8-cde]azulene-10,12(5H,11H)-dione] |  |  |  | 55% | 58% | 47% | 48% | 33% | 19% | 5% | 3% |  |  | 
O=C1NCN2c3ccc(Cl)cc3[C@H]3CCN4CCC[C@H]1[C@H]4[C@H]32 (racemic) [Example 1, (5aRS,12aSR,12bSR,12cSR)-7-Chloro-2,3,4,5,5a,10,11,12a,12b,12c-decahydro-1H,12H-3a,9b,11-triazabenzo[a]naphtho[2,1,8-cde]azulen-12-one] |  |  |  |  |  |  |  |  |  |  |  |  |  | > 250 °C
